Measured values from patent US9776964B2, “Phenoxyethyl cyclic amine derivatives and their activity as EP4 receptor modulators” (Eli Lilly and Company, priority 2013, dated 2017).
Where a name gives a salt, the structure may show the parent alone.

What was measured:
human EP1 = target: T1, human EP1 (Homo sapiens, UniProt P34995); experiment: In vitro binding to human EP1 ([3H]-PGE2 displacement, membranes); conditions: HEK293 membranes, n = 1, read-out: hEP1, Ki
T1 construct: expressed in transfected cells
T1 sequence (P34995 1-402): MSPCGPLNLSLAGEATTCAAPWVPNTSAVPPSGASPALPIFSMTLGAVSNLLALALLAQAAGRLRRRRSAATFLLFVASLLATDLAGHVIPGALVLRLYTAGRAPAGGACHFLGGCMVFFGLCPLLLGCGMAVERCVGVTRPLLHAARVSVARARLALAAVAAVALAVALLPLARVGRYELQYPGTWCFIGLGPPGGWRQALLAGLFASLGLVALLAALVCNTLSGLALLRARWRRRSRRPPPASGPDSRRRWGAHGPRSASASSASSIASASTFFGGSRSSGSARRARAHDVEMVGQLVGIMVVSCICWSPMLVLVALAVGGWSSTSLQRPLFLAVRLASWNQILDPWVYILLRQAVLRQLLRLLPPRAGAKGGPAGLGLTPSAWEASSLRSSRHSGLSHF
Protocol: (§1) hEP1 and hEP4 membranes are prepared from recombinant HEK293 cells stably expressing human EP1 (Genbank accession number AY275470) or EP4 (Genbank accession number AY429109) receptors. hEP2 and hEP3 membranes are prepared from HEK293 cells transiently transfected with EP2 (Genbank accession number AY275471) or EP3 (isoform VI: Genbank accession number AY429108) receptor plasmids. Frozen cell pellets are homogenized in homogenization buffer using a Teflon/glass homogenizer. Membrane protein is aliquoted and quick frozen on dry ice prior to storage at −80° C. […]
(§2) Kd values for [3H]-PGE2 binding to each receptor are determined by saturation binding studies or homologous competition. […] Nonspecific binding is calculated by comparing binding in the presence and absence of 2 μM of PGE2. The membranes are harvested by filtration (TomTek harvester), washed 4 times with cold buffer (10 mM MES pH 6.0 with KOH, 10 mM MgCl2), dried in a 60° C. oven, and the radioactivity is quantified as counts per minute (CPM) using a TopCount detector. Percent specific binding is calculated as the percent of the binding in the absence of any inhibitor, corrected for binding in the presence of 2 uM of PGE2. […] Results are expressed as the geometric mean±standard deviation; n=number of independent determinations. The standard deviation is calculated by the delta method, being SDlog Ki×geometric mean×ln(10).

human EP2 = target: T2, human EP2 (Homo sapiens, UniProt P43116); experiment: In vitro binding to human EP2 ([3H]-PGE2 displacement, membranes); conditions: HEK293 membranes, n = 1, read-out: hEP2, Ki
T2 construct: expressed in transfected cells; host or cells: HEK293 (transient)
Protocol: as §1, §2

human EP4 [1] = target: T3, human EP4 (Homo sapiens, UniProt P35408); experiment: In vitro binding to human EP4 ([3H]-PGE2 displacement, membranes); set-up: expressed in transfected cells; conditions: HEK293 membranes, geometric mean ± SD, n = 6, read-out: hEP4, Ki
Protocol: as §1, §2

human EP4 [2] = target: T3, human EP4; experiment: In vitro antagonist activity in human whole blood (reversal of PGE2 inhibition of LPS-induced TNFα production); format: cell-based; set-up: Blood is collected from normal volunteer donors into sodium heparin vacutainer tubes; from tissue; host or cells: human whole blood from volunteer donors; conditions: 10 μg/mL LPS + 10 nM PGE2, 20-24 hours, geometric mean ± SD, n=6, read-out: IC50 in human blood TNFα induction assay
Text: The inhibitory effects of PGE2 on LPS-induced TNFα production from macrophages/monocytes are believed to be mediated by EP4 receptors (See Murase, A., et al., Life Sciences, 82:226-232 (2008)). The ability of the compound of Example 8 to reverse the inhibitory effect of PGE2 on LPS-induced TNFα production in human whole blood is an indicia of functional activity.
Blood is collected from normal volunteer donors into sodium heparin vacutainer tubes. Donors have not taken NSAIDs or celecoxib within 48 hours or glucocorticoids within two weeks of the donation. All tubes/donor are pooled into 50 mL Falcon conical centrifuge tubes and 98 μL/well is distributed into 96-well tissue culture plates (Falcon 3072). […] TNFα levels in 2 μL plasma are quantified by a commercially available enzyme immunoassay (R&D Systems DY210), using Immulon 4 HBX plates (Thermo 3855) and 3,3′,5,5′ tetramethylbiphenyl-4,4′-diamine substrate (KPL 50-76-03). The plates are read at A450-A650 on a plate reader (Molecular Devices Versamax) using SOFTmaxPRO (v. 4.3.1) software. IC50s are calculated using Graphpad Prism (v. 4) nonlinear regression, sigmoidal dose response curve fitting. Results are expressed as the geometric mean±standard deviation; n=number of independent determinations The standard deviation is calculated by the delta method, being SDlog Ki×geometric mean×ln(10).

human EP3 (isoform VI) = target: T4, human EP3 (isoform VI) (Homo sapiens, UniProt P43115); experiment: In vitro binding to human EP3 ([3H]-PGE2 displacement, membranes)
T4 sequence (P43115 1-359): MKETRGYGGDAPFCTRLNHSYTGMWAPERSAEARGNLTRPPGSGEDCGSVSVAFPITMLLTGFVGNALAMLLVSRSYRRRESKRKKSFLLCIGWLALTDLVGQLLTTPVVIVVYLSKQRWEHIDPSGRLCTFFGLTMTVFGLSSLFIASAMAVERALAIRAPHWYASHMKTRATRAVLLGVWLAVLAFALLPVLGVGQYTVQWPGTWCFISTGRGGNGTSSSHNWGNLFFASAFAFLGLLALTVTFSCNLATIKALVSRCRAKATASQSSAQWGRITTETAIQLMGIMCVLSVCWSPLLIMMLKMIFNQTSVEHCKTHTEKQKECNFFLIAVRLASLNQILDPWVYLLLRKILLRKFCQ
Protocol: as §1, §2

human EP4 [3] = target: T3, human EP4; experiment: In vitro human EP4 functional antagonist activity (inhibition of PGE2-stimulated cAMP production, HTRF); format: cell-based; set-up: expressed in transfected cells; conditions: HEK293 cells expressing human EP4, EC80 of PGE2 (0.188 nM); geometric mean ± SD, n=6; read-out: IC50 measured at human EP4 (PGE2-stimulated cAMP production)
Protocol: Assays are conducted in recombinant HEK293 cells stably expressing human EP4 receptor. The cell lines are maintained by culturing in DMEM with high glucose and pyridoxine hydrochloride (Invitrogen) supplemented with 10% fetal bovine serum (FBS), 1 mM sodium pyruvate, 10 mM HEPES, […] and 2 mM L-glutamine. Confluent cultures are grown at 37° C. in an atmosphere containing 5% CO2. Cells are harvested using 2.5% Trypsin-EDTA, suspended in freeze media (FBS with 6% DMSO) at 10^7 cells/mL and aliquots are stored in liquid nitrogen. Just before assay, cells are thawed in DMEM, centrifuged, and resuspended in cAMP buffer.
The inhibition of PGE2-stimulated cAMP production by EP4 antagonists is measured using HTRF; (Cisbio catalog #62AM4PEB). […] The HTRF signal is detected using an EnVision® plate reader (Perkin-Elmer) to calculate the ratio of fluorescence at 665 nm to 620 nm. […] Results are expressed as the geometric mean±standard deviation; n=number of independent determinations. The standard deviation is calculated by the delta method, being SDlog Ki×geometric mean×ln(10).

T3 sequence (P35408 whole entry): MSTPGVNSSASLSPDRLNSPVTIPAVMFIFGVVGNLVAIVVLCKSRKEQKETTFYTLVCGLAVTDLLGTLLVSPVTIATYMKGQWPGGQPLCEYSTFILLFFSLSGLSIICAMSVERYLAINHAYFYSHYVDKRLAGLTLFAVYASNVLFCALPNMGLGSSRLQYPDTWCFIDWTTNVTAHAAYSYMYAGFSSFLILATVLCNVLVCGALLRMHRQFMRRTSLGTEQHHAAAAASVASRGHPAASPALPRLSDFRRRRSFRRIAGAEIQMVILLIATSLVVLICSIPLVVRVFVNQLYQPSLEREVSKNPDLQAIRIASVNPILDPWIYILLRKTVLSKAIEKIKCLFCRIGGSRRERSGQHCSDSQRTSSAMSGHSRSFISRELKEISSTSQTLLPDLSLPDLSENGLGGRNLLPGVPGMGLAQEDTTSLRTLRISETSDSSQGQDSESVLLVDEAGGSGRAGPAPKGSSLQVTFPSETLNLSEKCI
T2 sequence (P43116 whole entry): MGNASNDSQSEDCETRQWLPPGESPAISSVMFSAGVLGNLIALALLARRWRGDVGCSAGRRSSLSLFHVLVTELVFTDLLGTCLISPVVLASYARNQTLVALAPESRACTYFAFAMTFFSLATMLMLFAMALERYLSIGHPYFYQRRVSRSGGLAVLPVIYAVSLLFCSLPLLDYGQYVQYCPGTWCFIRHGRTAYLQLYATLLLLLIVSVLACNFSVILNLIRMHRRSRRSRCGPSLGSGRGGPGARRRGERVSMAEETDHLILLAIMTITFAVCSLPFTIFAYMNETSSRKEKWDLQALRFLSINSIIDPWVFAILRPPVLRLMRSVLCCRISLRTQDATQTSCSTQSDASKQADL

C[C@H](NC(=O)[C@H]1CC(F)(F)CCN1CCOc1ccccc1)c1ccc(C(=O)O)cc1 [Example 8, 4-((1S)-1-(((2R)-1-(2-phenoxyethyl)-4,4-difluoropiperidin-2-carbonyl)amino)ethyl)benzoic acid hydrochloride]
Ki (human EP1): > 12500 nM
Ki (human EP2): 956 nM
Ki (human EP4 [1]): 3.68 ± 3.32 nM
IC50 (human EP4 [2]): 78.2 ± 61 nM
Ki (human EP3 (isoform VI)): > 14800 nM
IC50 (human EP4 [3]): 1.76 ± 1.51 nM
